Data from patent US12673052B2, “Combinations for the treatment of cancer” (Exelixis, Inc., priority 2020, dated 2026).

Legend:
[1] = test system: CT26 colon carcinoma cells; test: Efficacy after oral dosing in CT26 tumor bearing female Balb/c mice; type: in vivo
Source text: In this study, the inhibitory effects of Compound 1 as a single agent and in combination with an anti-PD-1 inhibitor in Balb/c mice grafted with CT26 colon carcinoma cells were studied. CT26 cells inoculated into syngeneic mice are highly tumorigenic (Brattain et al. 1980) and share molecular features with undifferentiated, invasive human colorectal carcinoma cells (Castle et al. 2014). Therefore, the CT26 cell line can serve as a valid cellular model for the metastatic and poorly differentiated human colorectal cancer. Moreover, this model has been reported to express significant levels of RTKs, indicating a potential reliance on these signaling pathway for the maintenance of a tumorigenic phenotype in vivo (Pryzybyszewska et al. 2017).
CT26 colon carcinoma cells (ATCC, CRL-2638) were thawed from the Exelixis pharmacology cell bank into T-75 flasks (Corning, 43064U) using fresh culture medium, ie, RPMI-1640 containing 10% fetal bovine serum (GIBCO, A384002). […]
Oral doses were administered via a […], 1.5″ stainless steel needle with silicone tip (VWR, 20068-666). […] Survival was monitored for a maximum of 40 days. […]
All animals were measured twice a week for tumor volume and body weight using Studylog software.
Significance values represent differences in comparison to vehicle or anti-PD-1 treatment groups and were determined using a nonparametric Mann-Whitney U-test. […]

MET [2] = biological target: T1, MET (Homo sapiens, UniProt P08581, DEL964-1010); test: Endogenous phosphorylated MET in Hs 746T gastric carcinoma cells (MET exon 14 skip-splice mutation); type: cell-based; settings: MET (Hs 746T), no ligand; read-out: Cellular IC50
T1 construct: endogenous in cells; host or cells: Hs 746T gastric carcinoma cells
T1 sequence (P08581 with tags, fused parts or gaps DEL964-1010 limits assumed): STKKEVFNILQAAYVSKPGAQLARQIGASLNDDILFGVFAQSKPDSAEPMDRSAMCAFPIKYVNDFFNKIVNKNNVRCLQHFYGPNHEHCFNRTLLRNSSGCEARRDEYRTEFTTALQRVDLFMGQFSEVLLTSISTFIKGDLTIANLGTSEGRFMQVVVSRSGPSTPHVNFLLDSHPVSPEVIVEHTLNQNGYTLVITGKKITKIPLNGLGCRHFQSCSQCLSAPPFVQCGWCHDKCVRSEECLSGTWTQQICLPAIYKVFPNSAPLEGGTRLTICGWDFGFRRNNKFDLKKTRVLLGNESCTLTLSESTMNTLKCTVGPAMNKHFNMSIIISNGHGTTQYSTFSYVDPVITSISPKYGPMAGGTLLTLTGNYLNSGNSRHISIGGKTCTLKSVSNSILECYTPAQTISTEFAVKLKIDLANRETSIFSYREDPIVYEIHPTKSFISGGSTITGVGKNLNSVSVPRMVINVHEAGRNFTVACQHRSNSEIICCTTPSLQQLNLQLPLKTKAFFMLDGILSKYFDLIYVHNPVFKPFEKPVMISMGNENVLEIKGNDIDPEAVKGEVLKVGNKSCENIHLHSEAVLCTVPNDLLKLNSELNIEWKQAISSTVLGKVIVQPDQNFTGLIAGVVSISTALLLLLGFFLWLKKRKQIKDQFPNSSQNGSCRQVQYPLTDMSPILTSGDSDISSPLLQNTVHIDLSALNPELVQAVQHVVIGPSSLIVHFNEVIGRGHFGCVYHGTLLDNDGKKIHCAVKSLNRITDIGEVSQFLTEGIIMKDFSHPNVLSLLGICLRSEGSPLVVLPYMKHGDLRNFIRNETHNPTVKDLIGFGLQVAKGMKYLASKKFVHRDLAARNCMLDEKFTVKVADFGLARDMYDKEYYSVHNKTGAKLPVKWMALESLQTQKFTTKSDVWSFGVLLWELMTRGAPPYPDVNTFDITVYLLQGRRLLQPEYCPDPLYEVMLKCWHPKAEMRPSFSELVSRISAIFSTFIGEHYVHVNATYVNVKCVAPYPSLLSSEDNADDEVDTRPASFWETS
T1 sequence (P08581 25-307 partner limits assumed): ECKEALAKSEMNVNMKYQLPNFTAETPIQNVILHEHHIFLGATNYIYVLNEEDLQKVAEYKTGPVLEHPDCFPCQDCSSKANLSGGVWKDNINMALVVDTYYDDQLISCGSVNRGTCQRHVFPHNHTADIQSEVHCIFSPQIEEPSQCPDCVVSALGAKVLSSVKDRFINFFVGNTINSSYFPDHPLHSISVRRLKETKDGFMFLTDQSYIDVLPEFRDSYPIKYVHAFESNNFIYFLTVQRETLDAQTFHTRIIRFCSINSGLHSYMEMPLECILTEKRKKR
Experimental: (§1) The activity of Compound 1 was evaluated in cell-based assays that assessed the mechanistic effects of the compound in tumor and normal cells. Consistent with the biochemical data, Compound 1 is a potent inhibitor of cellular RTKs as assessed by analysis of receptor autophosphorylation as measured by enzyme-linked immunosorbent assay. Assays were performed using cell lines (PC-3, HUVEC, and A-172) stimulated with ligands to their respective receptors to induce autophosphorylation (MET, VEGFR2, and AXL) or a cell line (293A) transfected with an expression vector encoding the receptor of interest (MER). Inhibition of endogenous phosphorylated MET by Compound 1 in Hs 746T gastric carcinoma cells was also investigated due to the presence of the skip-splice mutation of exon 14 in the MET gene. This MET exon 14 alteration leads to increased MET stability and oncogenic activation, including constitutive MET phosphorylation. Also this mutation is known to occur in 3% of lung adenocarcinoma patients and to be sensitive to MET-targeted therapies (Frampton et al 2015).

SNU-5 = test: Tumor growth inhibition in xenograft model; type: in vivo, CB.17 SCID mice
Experimental: Three human tumor cell lines, NCI-H441, MDA-MB-231, and SNU-5, were selected for use in tumor xenograft studies using athymic nude, NSG and CB.17 SCID mice, respectively. Pharmacodynamic modulation of MET phosphorylation was also measured in the NCI-H441 and SNU-5 xenografts. Tumor-bearing mice were orally dosed once-daily for 14 days (qd×14), and the tumors were resected and processed for MET phosphorylation analysis by Western blot. […]

BCRP = BCRP (Homo sapiens, UniProt Q9UNQ0); test: Transporter interaction study (substrate and inhibition); type: in vitro ADME
Chain of BCRP (Q9UNQ0 whole entry): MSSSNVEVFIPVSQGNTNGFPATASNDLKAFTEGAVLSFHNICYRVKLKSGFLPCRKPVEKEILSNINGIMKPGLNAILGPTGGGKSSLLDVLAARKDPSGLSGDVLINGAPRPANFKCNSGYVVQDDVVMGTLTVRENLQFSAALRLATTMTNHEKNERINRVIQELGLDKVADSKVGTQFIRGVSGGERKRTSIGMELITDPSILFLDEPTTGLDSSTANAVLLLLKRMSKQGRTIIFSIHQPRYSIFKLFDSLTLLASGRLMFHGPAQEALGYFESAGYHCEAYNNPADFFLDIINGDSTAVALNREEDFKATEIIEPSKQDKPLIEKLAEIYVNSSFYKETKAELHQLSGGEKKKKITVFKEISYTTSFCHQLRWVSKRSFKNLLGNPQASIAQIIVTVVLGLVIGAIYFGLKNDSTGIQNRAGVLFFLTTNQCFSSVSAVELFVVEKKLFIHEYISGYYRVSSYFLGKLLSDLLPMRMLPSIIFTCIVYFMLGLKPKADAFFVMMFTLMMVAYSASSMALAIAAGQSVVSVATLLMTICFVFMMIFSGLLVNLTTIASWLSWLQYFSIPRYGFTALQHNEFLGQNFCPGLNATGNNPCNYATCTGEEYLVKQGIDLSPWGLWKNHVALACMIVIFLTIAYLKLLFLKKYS
Experimental: (§2) Plasma PK of Compound 1 was characterized in rats and beagle dogs. Toxicokinetic (TK) evaluations of oral Compound 1 were evaluated in repeat-dose studies in rats and dogs. Plasma protein binding was determined in mouse, rat, dog, monkey, and human plasma in vitro. Biotransformation and metabolite profiling of Compound 1 were investigated in vitro using mouse, rat, dog, monkey, and human liver microsomal fractions and hepatocytes and in vivo in rats and dogs. P-glycoprotein (P-gp) and breast cancer resistance protein (BCRP) transporter interaction studies, in vitro experiments evaluating cytochrome P450 (CYP) induction and inhibition by Compound 1, and CYP and glucuronosyltransferase (UGT) substrate specificity studies of Compound 1 were also performed.

P-gp = P-gp (Homo sapiens, UniProt P08183); test: as above; type: in vitro ADME
Chain of P-gp (P08183 whole entry): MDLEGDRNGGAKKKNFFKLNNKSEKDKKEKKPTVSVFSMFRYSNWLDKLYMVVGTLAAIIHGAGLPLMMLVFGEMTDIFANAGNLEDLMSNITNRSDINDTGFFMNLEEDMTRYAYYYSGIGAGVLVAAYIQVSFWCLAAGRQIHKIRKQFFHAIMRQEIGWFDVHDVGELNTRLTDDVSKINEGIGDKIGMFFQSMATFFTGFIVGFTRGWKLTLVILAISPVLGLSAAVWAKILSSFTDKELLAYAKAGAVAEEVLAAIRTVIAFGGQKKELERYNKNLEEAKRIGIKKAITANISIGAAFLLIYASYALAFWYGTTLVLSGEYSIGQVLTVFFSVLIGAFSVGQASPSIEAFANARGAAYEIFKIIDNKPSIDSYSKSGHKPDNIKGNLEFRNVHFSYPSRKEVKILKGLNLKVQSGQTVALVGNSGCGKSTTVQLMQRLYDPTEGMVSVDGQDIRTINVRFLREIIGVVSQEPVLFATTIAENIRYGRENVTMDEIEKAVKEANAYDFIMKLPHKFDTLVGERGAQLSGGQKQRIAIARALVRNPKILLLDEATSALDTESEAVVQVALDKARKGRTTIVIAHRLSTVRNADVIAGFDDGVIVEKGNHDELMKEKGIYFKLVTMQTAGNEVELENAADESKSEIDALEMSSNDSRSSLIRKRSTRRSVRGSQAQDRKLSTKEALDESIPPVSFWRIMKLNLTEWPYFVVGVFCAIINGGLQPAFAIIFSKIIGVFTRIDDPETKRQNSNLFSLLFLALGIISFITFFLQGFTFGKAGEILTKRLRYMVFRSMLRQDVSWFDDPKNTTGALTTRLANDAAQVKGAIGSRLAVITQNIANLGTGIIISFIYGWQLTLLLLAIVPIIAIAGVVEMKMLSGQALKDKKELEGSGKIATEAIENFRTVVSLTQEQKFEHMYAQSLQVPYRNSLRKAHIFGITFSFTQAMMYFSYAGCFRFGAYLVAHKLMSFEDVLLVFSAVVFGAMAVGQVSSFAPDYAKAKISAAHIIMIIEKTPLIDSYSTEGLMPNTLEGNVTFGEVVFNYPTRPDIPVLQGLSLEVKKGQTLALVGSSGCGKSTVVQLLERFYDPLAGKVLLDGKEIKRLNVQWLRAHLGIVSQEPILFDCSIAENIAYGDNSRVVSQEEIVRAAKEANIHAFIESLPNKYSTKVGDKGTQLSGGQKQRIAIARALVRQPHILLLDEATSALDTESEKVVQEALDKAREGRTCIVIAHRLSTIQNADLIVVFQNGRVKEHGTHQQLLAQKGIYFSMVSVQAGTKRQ
Experimental: as §2

mammalian cell = test: In vitro mammalian cell genotoxicity bioassay; type: cell-based
Experimental: (§3) The nonclinical toxicity of Compound 1 was characterized in dose range-finding 7-day and definitive 28-day repeat-dose studies in rats and dogs, and in in vitro bacterial and mammalian genotoxicity bioassays. Compound 1 was also evaluated in definitive neurobehavioral, respiratory and cardiovascular safety pharmacology studies.
Compound 1 was negative in in vitro bacterial and mammalian cell genotoxicity bioassays.

[3] = GLP safety pharmacology: cardiovascular, telemeterized dogs; type: in vivo
Experimental: as §3

MET [4] = biological target: MET (Homo sapiens, UniProt P08581); test: RTK autophosphorylation ELISA, PC-3 cells stimulated with HGF; type: cell-based; parameters: cell lines (PC-3, HUVEC, and A-172) stimulated with ligands to their respective receptors to induce autophosphorylation (MET, VEGFR2, and AXL); endogenous in cells; host or cells: PC-3; settings: MET (PC-3), ligand HGF; read-out: Cellular IC50
Chain of MET (Homo sapiens, UniProt P08581) (P08581 25-1390): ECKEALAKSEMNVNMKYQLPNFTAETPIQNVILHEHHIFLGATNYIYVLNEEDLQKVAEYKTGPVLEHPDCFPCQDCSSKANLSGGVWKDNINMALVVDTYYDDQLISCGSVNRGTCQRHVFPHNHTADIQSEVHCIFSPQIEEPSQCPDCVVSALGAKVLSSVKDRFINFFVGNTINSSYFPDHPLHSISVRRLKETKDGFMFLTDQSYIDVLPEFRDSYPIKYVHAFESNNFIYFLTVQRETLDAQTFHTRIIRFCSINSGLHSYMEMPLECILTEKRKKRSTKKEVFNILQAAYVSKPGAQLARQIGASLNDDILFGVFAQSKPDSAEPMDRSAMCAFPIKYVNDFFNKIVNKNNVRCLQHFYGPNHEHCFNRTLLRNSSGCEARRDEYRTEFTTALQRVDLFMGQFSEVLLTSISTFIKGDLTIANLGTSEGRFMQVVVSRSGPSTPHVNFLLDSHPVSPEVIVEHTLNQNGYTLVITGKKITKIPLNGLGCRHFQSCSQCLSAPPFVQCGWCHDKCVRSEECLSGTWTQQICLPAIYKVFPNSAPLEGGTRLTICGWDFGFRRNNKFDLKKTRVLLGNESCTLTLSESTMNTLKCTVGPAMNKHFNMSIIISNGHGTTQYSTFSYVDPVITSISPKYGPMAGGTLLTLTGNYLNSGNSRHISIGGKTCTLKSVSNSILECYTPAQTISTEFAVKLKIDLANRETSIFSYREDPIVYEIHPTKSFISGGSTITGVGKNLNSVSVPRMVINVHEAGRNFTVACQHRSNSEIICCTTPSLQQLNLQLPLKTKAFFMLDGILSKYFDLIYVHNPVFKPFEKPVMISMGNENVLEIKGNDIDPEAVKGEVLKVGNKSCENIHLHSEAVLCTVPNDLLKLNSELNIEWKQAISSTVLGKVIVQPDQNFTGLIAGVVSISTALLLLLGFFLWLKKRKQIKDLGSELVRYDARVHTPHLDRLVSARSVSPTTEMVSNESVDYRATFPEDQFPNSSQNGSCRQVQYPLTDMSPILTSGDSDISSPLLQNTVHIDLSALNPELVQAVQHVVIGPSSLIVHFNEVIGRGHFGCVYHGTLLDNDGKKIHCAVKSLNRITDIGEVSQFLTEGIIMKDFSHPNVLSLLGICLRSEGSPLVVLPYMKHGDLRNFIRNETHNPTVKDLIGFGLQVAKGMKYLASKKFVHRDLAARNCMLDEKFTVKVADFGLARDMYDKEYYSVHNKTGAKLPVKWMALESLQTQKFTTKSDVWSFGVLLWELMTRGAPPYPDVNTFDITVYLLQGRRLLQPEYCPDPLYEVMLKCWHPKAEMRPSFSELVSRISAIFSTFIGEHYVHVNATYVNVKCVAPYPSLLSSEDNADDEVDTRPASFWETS
Experimental: as §1

Q: For `CNC(=O)c1cc2c(Oc3ccc(NC(=O)C4(C(=O)Nc5ccc(F)cc5)CC4)cc3)ccnc2cc1OC` [Compound 1, 1-N′-(4-Fluorophenvl)-1-N-[4-[7-methoxy-6-(methylcarbamovl)quinolin-4-yl]oxyphenyl]cyclopropane-1,1-dicarboxamide], which “survival (Kaplan Meier)” value ([1]; 40-day dosing, P<0.0001 Compound 1 vs vehicle, P<0.0001 combination vs aPD-1 alone, P<0.05 combination vs Compound 1) is on record?
A: Its value is “Survival benefit and dose response”.

Q: And the tumor growth ([1]; single agent 1, 3, 10, and 30 mg/kg/day for 40 days)?
A: The tumor growth was “tumor growth delay”.

Q: What about the IC50 (MET [2]) of the same compound?
A: Its IC50 is 26 nM.

Q: And the “TGI (%)” value (SNU-5; 3 mg/kg qd × 14 oral, p-value 0.0052)?
A: The value was 54.2%.

Q: And the “TGI (%)” value (SNU-5; 10 mg/kg qd × 14 oral, p-value <0.0001)?
A: The value was 94.7%.

Q: What about the substrate of transporter (BCRP) of the same compound?
A: The substrate of transporter was “not to be a substrate”.

Q: What about the IC50 (BCRP; strong inhibitor) of the same compound?
A: Its IC50 is 189 nM.

Q: And the substrate of transporter (P-gp)?
A: The substrate of transporter was “not to be a substrate”.

Q: What about the IC50 (P-gp; strong inhibitor) of the same compound?
A: Its IC50 is 59 nM.

Q: And the genotoxicity (mammalian cell)?
A: Its genotoxicity is “negative”.

Q: What about the “plasma Cmax relative to hERG channel IC50” value ([3]; 18 mg/kg single dose, Cmax higher than IC50) of the same compound?
A: The value was “approximately 2 fold”.

Q: And the Cmax ([3]; dog, plasma, oral, single dose 18 mg/kg, male telemeterized dogs)?
A: The Cmax was ~7 µM.

Q: And the QTc interval ([3]; male telemeterized dogs, single doses as high as 18 mg/kg)?
A: Its QTc interval is “no QTc interval prolongation”.

Q: What about the “effect on cardiovascular parameters” value ([3]; single oral doses as high as 18 mg/kg, through 18 hours postdose) of the same compound?
A: Its value is “no significant effect on cardiovascular parameters”.

Q: And the IC50 (MET [4])?
A: The IC50 was 15 nM.
